Measurements published in patent US11919873B1, “1,3-benzothiazol-2-yl-N′-(benzoyloxy)ethanimidamide as an antitumor and antimicrobial compound” (priority 2023, dated 2024).

Assays:
[1] = tested on: human osteosarcoma cells (MG-63); assay: Assessment of cytotoxicity by SRB assay, MG-63; type: cell-based; conditions: 72 h, 0.01 μM to 100 μM, result in words only
Protocol: (§1) The human prostate cancer cells (PC3) and human osteosarcoma cells (MG-63) were obtained from Nawah Scientific Inc. (Mokatam, Cairo, Egypt) and cultured in DMEM (Dulbecco's modified eagle's medium), Gibco, USA, supplemented with fetal bovine serum (FBS) at a concentration of 10% and 100 U/mL of penicillin and streptomycin (PS). The cells were incubated at 37° C. in a humidified environment that contained 5% CO2. Cells were seeded in 96-well plates as aliquots of 100 μL cell suspension and incubated in a complete media for 24 h. Afterward, cells were treated with 3-(4-chlorophenyl)-5-{[5-methyl-2-(propan-2-yl)phenoxy]methyl}-1,2,4-oxadiazole at diverse concentrations ranging from 0.01 μM to 100 μM for 72 h. Then, cells were fixed at 4° C. for one hour with 150 μL of 10% trichloroacetic acid (TCA). […] Then, 150 μL of Tris pH 10.5 (10 mM) was added, and the absorbance was measured at 540 nm using a BMG LABTECH®—FLUOstar Omega microplate reader (Ortenberg, Germany). Half maximal inhibitory concentrations (IC50) values were calculated for each experiment using GraphPad Prism 6 software. […] The inhibition was calculated using the following equation: Inhibition %=100−Average Viability The anticancer activity of 1,3-benzothiazol-2-yl-N′-(benzoyloxy)ethanimidamide was assessed against highly aggressive androgen-independent metastatic human prostate cancer cells (PC3) and osteosarcoma (MG-63) cells.

[2] = tested on: Bacillus cereus, Staphylococcus aureus, Pseudomonas aeruginosa, Escherichia coli, Aspergillus flavus, Chrysosporium keratinophilum; assay: Agar plate disc-diffusion antimicrobial test; type: cell-based; conditions: 10 μL of 10 mg/mL in DMSO per disc, bacteria and fungi, result in words only
Protocol: The agar plate disc-diffusion method was applied. Sterilized filter papers (6 mm in diameter) were wetted with 10 μL of a solution of each compound to be tested, containing 10 mg/mL in DMSO, and the discs were allowed to air dry. The discs were then placed onto the surface of agar plates (nutrient agar for bacteria and Sabouraud's dextrose agar for fungi) and seeded with the test organism. Each plate contained 15 mL of the agar medium, previously seeded with 0.2 mL of the broth culture of each organism pre-grown for 18 hours. The plates were incubated at 37° C. for 48 hours, and 72 hours for fungi. The inhibition zones were measured in mm. Discs impregnated with DMSO were used as a control, and its inhibition zone was subtracted from the tested compound actual inhibition zone. In particular, the present 1,3-benzothiazol-2-yl-N′-(benzoyloxy)ethanimidamide was screened against gram positive bacteria, namely Bacillus cereus and Staphylococcus aureus, and gram-negative bacterial strains, namely Pseudomonas aeruginosa and Escherichia coli, while the antifungal activity was screened against Aspergillus flavus and Chrysosporium keratinophilum.

[3] = tested on: human prostate cancer cells (PC3); assay: Assessment of cytotoxicity by SRB assay, PC3; type: cell-based; conditions: 72 h, 0.01 μM to 100 μM, result in words only
Protocol: as §1

melting point: 153 to 155 °C
Structure (SMILES): N/C(Cc1nc2ccccc2s1)=N\OC(=O)c1ccccc1 [1,3-benzothiazol-2-yl-N′-(benzoyloxy)ethanimidamide]
antiproliferative activity against MG-63 cells [1]: excellent antiproliferative activities | antimicrobial activity against different microbes [2]: excellent antimicrobial activities | antiproliferative activity against PC3 cells [3]: excellent antiproliferative activities
